Test results reported in patent publication US20100260791A1, “CHLAMYDIA ANTIGENS” (President and Fellows of Harvard, priority 2007, published 2010).

Columns and labels:
[1] = tested on: C. trachomatis-specific CD8^+ murine T cells; experiment: IFN-γ ELISA of C. trachomatis-specific CD8+ murine T cells stimulated with peptide-pulsed macrophages; format: cell-based, mouse; conditions: CT242 and CT812 peptides (CD8+ Ag); for IFN-γ Produced −fold: fold-increase of IFN-γ production compared to untreated T-lymphocytes (footnote); for IFN-γ Produced ng: mean (± standard deviation) of duplicate samples
Text: (§1) A library of cells or viruses containing polynucleotides encoding C. trachomatis polypeptides, polypeptide fragments, or fusion proteins may be screened to determine which of the polypeptides, polypeptide fragments, or fusion proteins encoded by the polynucleotides are immunogenic. This may be accomplished by contacting each member of the library with a second cell (e.g., a macrophage or antigen presenting cell) capable of endocytosing the cell of the C. trachomatis library, and displaying portions of the expressed polypeptide of the library on the surface of the second cell (see, e.g., U.S. Pat. No. 6,008,415). The second cell is then contacted with a C. trachomatis-specific T cell (e.g., a C. trachomatis-specific CD4^+ or CD8^+ T cell) from an organism previously infected with C. trachomatis. The second cell may also be fixed (e.g., using paraformaldehyde) prior to contacting with a C. trachomatis-specific T cell. A C. trachomatis-specific T cell capable of binding a presented portion of the C. trachomatis protein, will result in secretion of cytokines. Cytokine secretion (e.g., secretion of IFN-γ, IL-2, or TNF) may be assayed for as known in the art, for example, using an ELISA assay.
(§2) In particular, murine H2^b bone marrow-derived macrophages (BMMs) were seeded at a density of 1×10^5 cells/well in 96-well plates. Fourteen to sixteen hours later, an aliquot of a frozen C. trachomatis library was thawed. The media was aspirated from the BMMs and replaced with a library aliquot and 60 μL of fresh RP-10 media. After 1 hour at 37° C., the BMMs were washed with PBS, 100 μL of RP-10 media added, and the cells incubated an additional hour at 37° C. The BMMs were then fixed with 1% paraformaldehyde for 15 minutes and washed extensively with PBS. […] T cells (either C. trachomatis-specific CD4^+ or CD8^+ murine T cells; 1×10^5) were added to each well in 200 μL of RP-10 media. Plates were incubated for 18-24 hours at 37° C. and the amount of IFN-γ in the supernatant of each well determined through the use of an IFN-γ ELISA assay (Endogen).
(§3) Another way to identify an antigenic peptide is to pulse the polypeptide, polypeptide fragment, or fusion protein onto macrophages and screen for their ability to activate C. trachomatis-specific CD4^+ or CD8^+ murine T cells (as described above). Peptides used in such assays can be synthesized using methods known in the art. A polypeptide, polypeptide fragment, or fusion protein that is capable of activating the C. trachomatis-specific CD4^+ or CD8^+ murine T cells is deemed immunogenic.
Pools of activated CD8^+ murine T cells for use in the identification of immunogenic C. trachomatis polypeptides, polypeptide fragments, and fusion proteins may be obtained using methods known in the art. Typically, in screening for antigens to pathogenic organisms, CD8^+ T cells are prepared from a mammal previously infected with the pathogenic organism. This preparation contains CD8^+ T cells specific for antigens from the pathogen.
C. trachomatis-specific CD8^+ T cells were harvested from mice as follows. A C57BL/6 mouse was injected intraperitoneally with 10^7 infection-forming units of C. trachomatis. Fourteen days later the mouse was euthanized and the spleen was harvested. The spleen was mashed through a 70 μm screen to create a single cell solution of splenocytes. The CD8^+ T cells were isolated from the splenocytes using anti-CD8 antibodies bound to MACS™ magnetic beads and separation protocols standard in the art (see, for e.g., MACS™ technology available from Miltenyi Biotec Inc., Auburn, Calif.). The isolated CD8^+ cells were added to macrophages of the same haplotype (H2^b), which were infected with C. trachomatis 18 hours prior in a 24-well dish. Irradiated splenocytes from a naïve mouse (C57BL/6) were added as feeder cells in media containing IL-2. The cells were incubated for 10 days during which the C. trachomatis-specific CD8^+ T cells were stimulated by the infected macrophages and replicated. […]

[2] = tested on: C. trachomatis-specific CD4^+ murine T cells; experiment: IFN-γ ELISA of C. trachomatis-specific CD4+ murine T cells stimulated with peptide-pulsed macrophages; format: cell-based, mouse; conditions: CT144 peptides (CD4+ Ag); for IFN-γ Produced −fold: fold-increase of IFN-γ production compared to untreated T-lymphocytes (footnote); for IFN-γ Produced ng: mean (± standard deviation) of duplicate samples
Text: as §1, §2, §3
Activated CD4^+ murine T cells for use in the identification of immunogenic C. trachomatis polypeptides, polypeptide fragments, and fusion proteins may be obtained using methods known in the art. Splenocytes from mice were isolated 21 days after infection with C. trachomatis serovar L2 and cultured with irradiated (2,000 rad) bone marrow-derived dendritic cells, UV-inactivated C. trachomatis serovar L2, and naïve syngeneic splenocytes in RP-10 (RPMI medium 1640 supplemented with 10% fetal calf serum, L-glutamine, HEPES, 50 μM 2-β-mercaptoethanol, 50 units/ml penicillin, and 50 μg/ml streptomycin) with a-methyl mannoside and 5% supernatant from Con A-stimulated rat spleen cells. CD8^+ T cells were depleted from the culture by using Dynabeads Mouse CD8 (Invitrogen, Carlsbad, Calif.). The CD4^+ T cells were restimulated every 7 days with C. trachomatis-pulsed bone marrow-derived dendritic cells. Once a C. trachomatis-specific CD4^+ cell line was established, a CD4^+ T cell clone was isolated by limiting dilution.

Sequence | IFN-γ Produced −fold [1] | IFN-γ Produced ng [1] | IFN-γ Produced −fold [2] [fold] | IFN-γ Produced ng [2]
SQAEGQYRL [CT812 peptide tested with CD8+ T cells] | 0.8 fold | 0.03 (±0.3) ng | – | –
FSVTNPVVF (listed as Chlamydia trachomatis) [amino acids 103-111 of the CT812 polypeptide] | 65 fold | 2.6 (±0.3) ng | – | –
AKLECTQDLIAQGKLIVTNP [CT144 peptide tested with CD4+ T cells] | – | – | 35 | 1.4 (±0.3) ng
YQILNQSNL (listed as Chlamydia trachomatis) [amino acids 109-117 of the CT242 polypeptide] | >5,750 fold | >230 ng | – | –
AALYSTEDL [CT812 peptide tested with CD8+ T cells] | 0.5 fold | 0.02 (±0.02) ng | – | –
KSDISFGGRVNLADNTVNYS (listed as Chlamydia trachomatis) [amino acids 77-96 of the CT144 polypeptide] | – | – | 40 | 1.6 (±0.4) ng
QSVNELVYV [CT812 peptide tested with CD8+ T cells] | 0.3 fold | 0.01 (±0.01) ng | – | –
NVTQDLTSSTAKLECTQDLI [CT144 peptide tested with CD4+ T cells] | – | – | 35 | 1.4 (±0.3) ng
SNLKRMQKI [CT242 peptide tested with CD8+ T cells] | 10 fold | 0.40 (±0.07) ng | – | –
FQEKDADTL [CT812 peptide tested with CD8+ T cells] | 2.0 fold | 0.09 (±0.03) ng | – | –
AQGKLIVTNPKSDISFGGRV (listed as Chlamydia trachomatis) [amino acids 67-86 of the CT144 polypeptide] | – | – | 925 | 37.0 (±1.8) ng
GQSVNELVY [CT812 peptide tested with CD8+ T cells] | 0.8 fold | 0.03 (±0.02) ng | – | –
LEFASCSSL [CT812 peptide tested with CD8+ T cells] | 1.5 fold | 0.06 (±0.01) ng | – | –
LNQSNLKRM (listed as Chlamydia trachomatis) [amino acids 112-120 of the CT242 polypeptide] | 160 fold | 6.5 (±2.4) ng | – | –
FTSSNLDSP [CT812 peptide tested with CD8+ T cells] | 1.0 fold | 0.04 (±0.01) ng | – | –
